Reference: PMC11819603, “Development of a reliable, sensitive, and convenient assay for the discovery of new eIF5A hypusination inhibitors” (PLOS ONE, 2025)

Key:
DHPS = target: T1, DHPS (Homo sapiens, UniProt P49366); assay: Hyp'Assay without DOHH: deoxyhypusination of eIF5A revealed with Hpu98 antibody; type: biochemical; settings: 5 μM spermidine
T1 construct: host or cells: E. coli BL21 (DE3)
T1 sequence (P49366 1-369): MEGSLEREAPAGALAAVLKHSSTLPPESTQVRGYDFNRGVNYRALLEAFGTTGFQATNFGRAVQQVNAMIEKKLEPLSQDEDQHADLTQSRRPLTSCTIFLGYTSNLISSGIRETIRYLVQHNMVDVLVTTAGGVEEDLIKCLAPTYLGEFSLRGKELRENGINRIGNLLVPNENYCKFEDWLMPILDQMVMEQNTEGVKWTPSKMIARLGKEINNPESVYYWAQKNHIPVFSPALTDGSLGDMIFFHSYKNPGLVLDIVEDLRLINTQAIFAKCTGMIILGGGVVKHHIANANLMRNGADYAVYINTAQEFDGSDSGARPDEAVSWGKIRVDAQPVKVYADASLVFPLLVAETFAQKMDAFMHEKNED
Source text: To address this issue, we compared the ability of GC7 to inhibit DHPS or DOHH by adding GC7 during the first step of the Hyp’Assay; when DHPS mediates the deoxyhypusination reaction (Fig 2A), or only during the second step, when DOHH hydroxylate deoxyhypusinated eIF5A. […] This confirms the specificity of GC7 towards DHPS. When finding new hypusination inhibitors adding them during the first or the second step of the Hyp’Assay will allow us to determine if the inhibition affects DHPS or DOHH. Another way to discriminate between DHPS or DOHH inhibitors would be to use Hpu98, an antibody that recognized both hypusinated and deoxyhypusinated eIF5A, instead of Hpu24, which is specific for hypusinated eIF5A [18]. […] We performed a new Hyp’Assay by omitting DOHH in the reaction mix and using the Hpu98 antibody. First, we performed a dose response experiment with spermidine at pH: 8.0 and 9.0 (Fig 3E). The Hyp’Assay allows the detection of deoxyhypusinated eIF5A in a spermidine-dependent manner. Under these conditions, deoxyhypusination was equally efficient at both pH tested. […] We also tested the ability of GC7 (Fig 3F) and CPX or EDTA (Fig 3G) to inhibit DHPS. […] This provided us with another method to distinguish between DHPS and DOHH inhibitors.
The cell-free reaction described in 4.4 is performed in triplicates in a 96-wells plate (MaxiSorp, ThermoFisher) in the presence of 3 μg of eIF5A, 2 μg of DHPS, and 2 μg of DOHH by well. The reaction product, hypusinated eIF5A, is adsorbed onto the plate overnight at 4°C. The plate is washed (100 μL/well) thrice with PBS-T (PBS– 0.05% Tween20), then saturated with 1% non-fat dry milk in PBS-T for 2 h at room temperature. The plate is washed thrice with PBS-T and incubated overnight at 4°C with the anti-hypusine antibody (1:2000 in saturation buffer, 50 μL/well). The next day and after 5 washes with PBS-T, HRP-coupled anti-rabbit secondary antibody diluted 1:5000 in saturation buffer (50 μL/well) is added for 2 h at room temperature.

[1] = tested on: eIF5A hypusination in HT29 cells; assay: eIF5A hypusination in intact HT29 cells, Western blot; type: cell-based; settings: Homo sapiens, HT-29, 24 h
Experimental: We tested the ability of the GC7 analogs to inhibit hypusination in intact cells. MCF-7 cells (Fig 5B), a classical model of breast cancer cell line, and HT29 cells (Fig 5C), a cell model of colorectal cancer, were treated with 40 μM of GC7, 1, 2, 3, and 4 for 24h. Cells were lysed and analyzed by Western blot. As observed, none of the molecules modified eIF5A expression. […] GC7 analogs inhibited hypusination from 35 to 55%.
The human breast cancer cell line MCF7 (HTB-22 ATCC) and colorectal adenocarcinoma HT29 (HTB-38 ATCC) were cultured in DMEM (Gibco) supplemented with 10% FBS (Dutscher), 10 U/mL penicillin, and 10 mg/mL streptomycin. […]
After treatment, cells were washed with ice-cold PBS and lysed in RIPA Buffer (50 mM Tris pH 7.5, 150 mM NaCl, 0.1% SDS, 0.5% Na Deoxycholate, 5 mM NaF, 2.5 mM Na4P2O7, 1% NP4O) containing a protease inhibitor cocktail (complete Roche). […] The membranes were probed with the appropriate primary antibody that was detected by horseradish peroxidase-conjugated secondary antibody (Jackson Immunoresearch) and visualized by chemiluminescence (ECL Amersham RPN 3244) using a Fuji LAS-4000 imager. ImageJ® software was used to quantify band intensity and the ratios of proteins of interest were normalized to a loading control. […]

In the case of `N=C(N)NCCCCCCCN` [GC7, N1-guanyl-1,7-diaminoheptane], the “ability to inhibit deoxyhypusination” value (DHPS) is reported as “efficient in inhibiting deoxyhypusination”, the “Relative deoxyhypusination of eIF5A, Mean (quantification from Figure 3F, 3G)” value (DHPS; CTRL 100,0, inhibitor concentration not given) is reported as 7,531 a.u and the inhibition at 40 µM [1] is reported as 80%.
